Earlier results, collected in patent publication US11484035B2, “Synergistic composition of a nematicide” (TELLURIS BIOTECH INDIA PRIVATE LIMITED, priority 2017, dated 2022).

System: nematodes
Settings: individual peptides
For “DLLRPVVIAPQFSRQ (Caenorhabditis elegans) [Peptide 2, 15 amino acid peptide, 99-113 amino acid stretch of CED-4 protein]”, the “effective concentration for nematicidal activity” value (shortened to “effective concentration”) is given as “about 1 mg/ml”.
In the case of “FPKFMQLHQKFY (Caenorhabditis elegans) [Peptide 12, 12 amino acid peptide, 529-540 amino acid stretch of CED-4 protein]”, the “effective concentration” value is listed as “about 1 mg/ml”.
For “RQMLDRKLLLGNVPKQMTC (Caenorhabditis elegans) [Peptide 3, 19 amino acid peptide, 112-130 amino acid stretch of CED-4 protein]”, the “effective concentration” value is given as “about 1 mg/ml”.
